This note sets out measurements from article PMC9501899 (Journal of the American Chemical Society, 2022).

The target in one data set is T1, human LRRK2 (Homo sapiens, UniProt Q5S007).
T1 construct: endogenous in cells; host or cells: human PBMCs from healthy donors
The data set is described as follows: LRRK2 degradation in peripheral blood mononuclear cells (PBMCs). The format is cell-based. The source says: The relative LRRK2 protein and pRab10 levels were obtained by quantifying the ratios of total LRRK2/GAPDH or Rab10-pThr73/total Rab10, respectively, and the ratios were normalized to the DMSO-treated samples. The relative LRRK2 and pRab10 protein levels were plotted against the compound concentration and fitted against “nonlinear regression, one site-fit log IC50” in GraphPad to obtain the DC50 and EC50 values. Data points are presented as mean ± standard error of the mean (SEM) from three biological independent replicates. […] The relative LRRK2 protein and pRab10 levels were obtained by quantifying the ratios of total LRRK2/ GAPDH or Rab10-pThr73/total Rab10, respectively, and the ratios were normalized to the DMSO-treated samples. The relative LRRK2 and pRab10 protein levels were plotted against the treatment time and were fitted against “nonlinear regression, one-phase decay” in GraphPad to obtain the half-life (T1/2) values. Data points are presented as mean ± SEM from three biological independent replicates. […] The relative LRRK2 levels were obtained by quantifying the ratios of total LRRK2/tubulin and normalized to the DMSO-treated samples. The relative LRRK2 levels were plotted against the compound concentration and fitted against “nonlinear regression, one site-fit log IC50” in GraphPad to obtain the DC50 values.
PBMC cells were separated from human blood from healthy volunteer donors following the existing protocol[82] and pelleted by centrifugation at 1000g for 2 min. The supernatant was discarded, and the PBMC pellet was resuspended in PBS containing 2% FBS for washing. The suspension was centrifuged at 1000g for 2 min again, and the PBMC pellet was resuspended in Roswell Park Memorial Institute (RPMI)-1640 (Gibco) media supplemented with 10% FBS. The cells were then seeded into six-well plates and treated with testing compounds at indicated concentrations and time periods. After treatment, the cells were collected into a 2 mL Eppendorf tube and centrifuged at 500g for 2 min to pellet the cells, the supernatant was discarded, and the pellet was resuspended in 1 mL PBS and centrifuged at 500g for 2 min again. The PBMC pellet was lysed with 60 μL of lysis buffer containing 50 mM tris–HCl, pH 7.5, 1% (v/v) Triton X-100, 1 mM ethylene glycol-bis(β-aminoethyl ether)-N,N,N′,N′-tetraacetic acid (EGTA), 1 mM sodium orthovanadate, 50 mM NaF, 0.1% (v/v) 2-mercaptoethanol, 10 mM 2-glycerophosphate, 5 mM sodium pyrophosphate, 0.1 μg/mL microcystin-LR (Enzo Life Sciences), 270 mM sucrose, and 0.5 mM diisopropyl fluorophosphate (DIFP) (Sigma-Aldrich, Cat# D0879) in addition to a complete EDTA-free protease inhibitor cocktail (Sigma-Aldrich Cat # 11836170001). DIFP is highly toxic and must be prepared in a fume hood to a stock solution of 0.5 M in isopropanol. The lysed cells were then centrifuged at 1500g for 15 min at 0 °C. The supernatants were collected for analysis by quantitative immunoblotting. For long-term storage, the supernatant was flash-frozen and stored at −80 °C. Protein concentrations of cell lysates were determined using the Pierce BCA Protein Assay Kit (Thermo Fisher).
Cell lysates containing a quarter of a volume of 4× NuPAGE LDS sample buffer (NP0007) supplemented with 5% β-mercaptoethanol were heated at 95 °C for 5 min. Samples (15–20 μg) were loaded onto precast 4–12% bis–tris midi 20W or 26W gels (Thermo Fisher Scientific, Cat# WG1402BOX or WG1403BOX) and resolved at 130 V for 2 h with a NuPAGE MOPS SDS running buffer (Thermo Fisher Scientific Cat# NP0001-02). Proteins were electrophoretically transferred onto a 0.45 μm nitrocellulose membrane (GE Healthcare, Amersham Protran Supported […] NC) at 90 V for 90 min on ice in a transfer buffer (48 mM tris base and 39 mM glycine supplemented with 20% methanol).

A further data set concerns LRRK2. The data set is described as follows: LRRK2 degradation in multiple cell lines (summary). The format is cell-based. The source says: Leucine-rich repeat kinase 2 (LRRK2) is one of the most promising targets for Parkinson’s disease.
The target in another data set is T2, LRRK2-NanoLuc (Homo sapiens, UniProt Q5S007).
T2 construct: host or cells: HEK293
Nature of the data set: NanoBRET binary LRRK2 binding in HEK293 lysate. Particulars: compound alone, lysate of HEK293 cells, LRRK2 tracer. The protocol: In the maximum signal control samples (DMSO control), DMSO was added instead of testing compounds.
(In general: In BRET a luciferase serves as donor, and the signal depends on an acceptor being close.)

The nature of data set [1]: Mouse hepatocyte stability. The format is in vitro ADME. Particulars: mouse hepatocytes. The protocol: Fifty microliters of prewarmed hepatocytes (2 × 10^6 cells/mL) in suspension media (Krebs–Henseleit buffer (Sigma-Aldrich) containing 5.6 g/L HEPES) was mixed with 50 μL of prewarmed compound dosing solution (2 μM in Krebs–Henseleit buffer with 1% DMSO). After incubating at 37 °C for 15, 30, 60, or 120 min, 100 μL of acetonitrile containing internal standard was added to quench the reaction. For 0 min incubation, acetonitrile was mixed with hepatocytes first before adding the compound solution. After quenching, the mixture was shaken at a vibrator for 10 min (600 rpm/min) and then sonicated for 2 min before centrifugation (5594g for 15 min). The supernatant was taken and diluted for LC-MS analysis.

The subject of another data set is LRRK1, VPS35, PPM1H. The data set is described as follows: TMT-based global proteomic profiling in WT MEFs, LRRK2-related proteins. The format is cell-based, mouse. Particulars: 300 nM, 4 h.
The test system of a further data set is Rab10-pThr73. Nature of the data set: Rab10 dephosphorylation in G2019S LRRK2 MEFs by Western blotting. It is filed as cell-based, mouse. Particulars: 0.3 µM. For orientation: A western blot detects proteins with antibodies after separation by electrophoresis.
Data set [2] can be described thus: Mouse liver microsome stability. It is filed as in vitro ADME. Particulars: liver microsomes. The procedure: Testing compound (1.5 μL) or reference compound (500 μM in 5% DMSO and 95% acetonitrile) was mixed with 18.75 μL of 20 mg/mL liver microsome (Corning) and 479.75 μL of potassium phosphate buffer (0.1 M potassium phosphate buffer, 1 mM EDTA, pH 7.4). The reaction was started by mixing 30 μL of the above mixture (prewarmed to 37 °C) with 15 μL of 6 mM NADPH stock solution (prewarmed to 37 °C). After incubating for 5, 15, 30, or 45 min, 135 μL of acetonitrile containing internal standard was added to stop the reaction. For 0 min, the compound and microsome mixture were mixed with acetonitrile first before adding NADPH. After quenching, the reaction mixture was centrifuged, and the supernatant was taken and diluted for LC-MS analysis.
For orientation: Liver microsomes are vesicles of endoplasmic reticulum, rich in cytochrome P450 enzymes.

Like-named read-outs stand apart in the source and are kept apart here.

T1 sequence (Q5S007 whole entry): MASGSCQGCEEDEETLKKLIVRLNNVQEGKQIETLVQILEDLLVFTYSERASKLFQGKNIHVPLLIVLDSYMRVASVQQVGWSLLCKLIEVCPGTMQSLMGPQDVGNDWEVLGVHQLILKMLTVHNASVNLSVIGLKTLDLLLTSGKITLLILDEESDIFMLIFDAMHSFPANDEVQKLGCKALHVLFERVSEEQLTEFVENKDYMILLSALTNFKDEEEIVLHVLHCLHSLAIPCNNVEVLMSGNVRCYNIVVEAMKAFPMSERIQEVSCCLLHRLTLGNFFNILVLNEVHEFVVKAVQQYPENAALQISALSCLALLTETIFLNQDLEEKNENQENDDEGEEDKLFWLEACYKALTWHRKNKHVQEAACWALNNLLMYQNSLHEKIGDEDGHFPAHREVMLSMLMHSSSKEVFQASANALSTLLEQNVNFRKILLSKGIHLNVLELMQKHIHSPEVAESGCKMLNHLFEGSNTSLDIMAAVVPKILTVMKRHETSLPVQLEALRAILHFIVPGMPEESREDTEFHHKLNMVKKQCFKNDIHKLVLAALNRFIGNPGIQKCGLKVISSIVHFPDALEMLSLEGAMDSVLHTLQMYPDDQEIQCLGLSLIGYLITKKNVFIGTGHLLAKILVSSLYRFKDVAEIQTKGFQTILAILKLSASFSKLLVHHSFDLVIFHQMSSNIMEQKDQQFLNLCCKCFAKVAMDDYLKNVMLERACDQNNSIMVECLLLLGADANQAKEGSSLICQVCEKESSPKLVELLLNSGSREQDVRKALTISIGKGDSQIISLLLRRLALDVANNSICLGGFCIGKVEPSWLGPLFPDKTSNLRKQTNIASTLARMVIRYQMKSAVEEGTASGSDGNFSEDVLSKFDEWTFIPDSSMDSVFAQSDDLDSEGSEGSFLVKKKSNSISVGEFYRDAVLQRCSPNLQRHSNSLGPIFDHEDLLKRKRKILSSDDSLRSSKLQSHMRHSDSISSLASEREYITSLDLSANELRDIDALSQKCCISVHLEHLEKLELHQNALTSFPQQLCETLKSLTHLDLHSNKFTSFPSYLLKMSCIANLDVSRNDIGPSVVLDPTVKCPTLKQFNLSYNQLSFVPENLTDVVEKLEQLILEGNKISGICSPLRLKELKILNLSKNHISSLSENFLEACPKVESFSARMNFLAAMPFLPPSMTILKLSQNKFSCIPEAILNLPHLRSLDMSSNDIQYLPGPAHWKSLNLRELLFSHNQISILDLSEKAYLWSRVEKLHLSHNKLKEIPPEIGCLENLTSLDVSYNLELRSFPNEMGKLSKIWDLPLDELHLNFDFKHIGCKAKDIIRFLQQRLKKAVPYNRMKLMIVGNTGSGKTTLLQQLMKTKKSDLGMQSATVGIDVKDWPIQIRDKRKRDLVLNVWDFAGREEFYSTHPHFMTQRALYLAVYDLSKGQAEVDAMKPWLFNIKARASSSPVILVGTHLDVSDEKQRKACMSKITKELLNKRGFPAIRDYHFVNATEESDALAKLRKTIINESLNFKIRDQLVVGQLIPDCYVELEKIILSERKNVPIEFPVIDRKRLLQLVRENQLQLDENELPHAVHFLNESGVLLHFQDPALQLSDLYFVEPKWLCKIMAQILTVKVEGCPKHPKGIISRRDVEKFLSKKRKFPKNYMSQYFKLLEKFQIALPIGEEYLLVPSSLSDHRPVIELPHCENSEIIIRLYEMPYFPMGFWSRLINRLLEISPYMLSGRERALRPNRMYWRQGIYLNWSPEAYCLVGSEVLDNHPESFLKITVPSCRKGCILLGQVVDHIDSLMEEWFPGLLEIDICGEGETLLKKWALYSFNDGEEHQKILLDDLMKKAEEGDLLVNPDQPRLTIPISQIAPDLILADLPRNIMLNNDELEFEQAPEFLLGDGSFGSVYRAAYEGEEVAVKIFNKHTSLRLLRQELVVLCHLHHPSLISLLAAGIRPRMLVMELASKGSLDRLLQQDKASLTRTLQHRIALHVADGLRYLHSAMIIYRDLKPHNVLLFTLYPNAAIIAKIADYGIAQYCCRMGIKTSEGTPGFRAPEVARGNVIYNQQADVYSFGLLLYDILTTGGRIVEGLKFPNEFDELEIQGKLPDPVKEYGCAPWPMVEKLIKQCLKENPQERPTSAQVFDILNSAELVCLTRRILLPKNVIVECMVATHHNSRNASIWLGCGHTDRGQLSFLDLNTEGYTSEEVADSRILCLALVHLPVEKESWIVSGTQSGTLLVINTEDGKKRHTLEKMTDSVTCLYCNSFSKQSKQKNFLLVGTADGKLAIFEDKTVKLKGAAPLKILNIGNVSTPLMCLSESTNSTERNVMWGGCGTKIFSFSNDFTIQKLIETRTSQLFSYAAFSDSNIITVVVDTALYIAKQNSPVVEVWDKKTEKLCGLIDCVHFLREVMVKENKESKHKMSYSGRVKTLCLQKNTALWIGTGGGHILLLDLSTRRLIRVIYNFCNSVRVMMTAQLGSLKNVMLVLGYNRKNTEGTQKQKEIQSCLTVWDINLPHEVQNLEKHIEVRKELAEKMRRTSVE
T2 sequence (Q5S007 whole entry): as above

Take `CNc1nc(Nc2ccc(C(=O)N3CCN(C[C@H]4CC[C@H](CSC(C)(C)[C@H](NC(=O)C5(F)CC5)C(=O)N5C[C@H](O)CC5C(=O)NCc5ccc(-c6scnc6C)cc5)CC4)CC3)cc2OC)ncc1Cl` (stereo partly drawn) [XL01126, (2S,4R)-1-((R)-3-((((1R,4R)-4-((4-(4-((5-Chloro-4-(methylamino)pyrimidin-2-yl)amino)-3-methoxybenzoyl)piperazin-1-yl)methyl)cyclohexyl)methyl)thio)-2-(1-fluorocyclopropane-1-carboxamido)-3-methylbutanoyl)-4-hydroxy-N-(4-(4-methylthiazol-5-yl)benzyl)pyrrolidine-2-carboxamide]: the DC50 – broadly, the concentration giving 50% degradation – on human LRRK2 (4 h, read-out: DC50,4h (LRRK2)) was 72 nM; at human LRRK2 (24 h, read-out: DC50,24h (LRRK2)), 17 nM; with LRRK2, 14 to 72 nM. The Dmax values in the data set with LRRK2 lay within 82 to 90%. Also, on LRRK2-NanoLuc, the IC50 (commonly the concentration at which inhibition is half-maximal) was 2000 nM. The CLint scaled (usually the capacity of the preparation to metabolise the compound, expressed as a volume cleared per time) at 1 µM in data set [1] was 26 mL/min/kg; in data set [2] (pH 7.4), 1490 mL/min/kg. In addition, the half-life at 1 µM stood at 5.24 h in data set [1] (read-out: T1/2 in mouse hepatocytes) and 3.65 min in data set [2] (pH 7.4, read-out: T1/2 in mouse liver microsome). Also, the “levels of LRRK1, VPS35 and PPM1H (in words)” value in the data set with LRRK1, VPS35, PPM1H was “remained unaffected”. Moreover, the “GS-pRab10 percent label at the end of the time curve” value in the data set with Rab10-pThr73 came out at 92%.
As to `CNc1nc(Nc2ccc(C(=O)N3CCN(C[C@H]4CC[C@@H](CSC(C)(C)[C@H](NC(=O)C5(F)CC5)C(=O)N5C[C@H](O)CC5C(=O)NCc5ccc(-c6scnc6C)cc5)CC4)CC3)cc2OC)ncc1Cl` (stereo partly shown) [XL01134], the “GS-pRab10 percent label at the end of the time curve” value in the data set on Rab10-pThr73 was 87%.
In the case of `CNc1nc(Nc2ccc(C(=O)N3CCN(C[C@H]4CC[C@H](CSC(C)(C)[C@H](NC(=O)C5(F)CC5)C(=O)N5C[C@@H](O)C[C@H]5C(=O)NCc5ccc(-c6scnc6C)cc5)CC4)CC3)cc2OC)ncc1Cl` [cis-XL01126, (2S,4S)-1-((R)-3-((((1R,4R)-4-((4-(4-((5-Chloro-4-(methylamino)pyrimidin-2-yl)amino)-3-methoxybenzoyl)piperazin-1-yl)methyl)cyclohexyl)methyl)thio)-2-(1-fluorocyclopropane-1-carboxamido)-3-methylbutanoyl)-4-hydroxy-N-(4-(4-methylthiazol-5-yl)benzyl)pyrrolidine-2-carboxamide], on human LRRK2 (4 h), the “DC50,4h (LRRK2)” value was “NDO” and the “Dmax (LRRK2)” value was “NDO”. Moreover, at human LRRK2 (24 h), the “DC50,24h (LRRK2)” value is given as “NDO” and the “Dmax (LRRK2)” value is given as “NDO”.
